{
  "source": "patent US12521409B2",
  "about": "“Cognition” (priority 2023, dated 2026)",
  "key": {"[1]": {"test_system": "TG2576 mice", "assay": "Plasma glutamate and glutamine by LC-MS in TG2576 mice on TAG-supplemented diet (Example 1B)", "conditions": "mouse, in vivo"}, "[2]": {"test_system": "TG2576 mice", "assay": "UDP N-acetyl glucosamine in brain tissue of TG2576 mice on TAG-supplemented diet, LC-MS/MS (Example 2B)", "assay_type": "in vivo, mouse", "method": "After 6 weeks brains were excised and bisected in the sagittal plane. The hemi-brains were stored frozen (−80° C.) then thawed, weighed and homogenized in 10 volumes of MeOH/MeCN/H2O (50%/30%/20%, v/v/v). Homogenates were centrifuged at 5000 rpm for 30 min. The supernatant was passed through 1 kDa MW centrifugal filters then evaporated and resuspended in the HPLC mobile phase. UDP N-acetyl glucosamine was run on a mixed-mode hydrophilic HPLC column (150 mm×4.6 mm id, Primesep N, by SIELC), with guard under a linear gradient of 80% acetonitrile and 10 mM ammonium formate pH 4.3 to 10% MeCN and 10 mM ammonium formate over 9 min, then return to starting conditions over 1 min. UDP N-acetyl glucosamine in brain extracts was quantified against commercial standard UDP N-acetyl glucosamine detected by mass spectrometry (MS-MS) in negative ion mode, scanning for m/z 606 and identification of major collision fragments m/z 385 and 403. UDP levels were corrected for brain mass. The effect of diet was calculated using 1-tailed t-test."}, "[3]": {"test_system": "TG2576 mice", "assay": "Morris water maze, spatial memory in TG2576 mice (Example 3B)", "assay_type": "in vivo, mouse", "conditions": "TAG diet", "description": "The Morris water maze (MWM) has been used to measure spatial memory deficit in TG2576 mice. Mice are placed in a tub of water and containing a submerged platform. The amount of time required for a mouse to swim to the platform is referred to as the maze “escape time”. There are two testing stages in the water maze: 1. VISIBLE STAGE, in which the position of the platform is made visible by a marker pole attached to the platform, and 2. HIDDEN STAGE where the marker pole is removed and the water made opaque by the addition of white paint. Compared to wild type siblings, older TG2576 mice show increased latency to escape time.\nThe maze consisted of a 715 mm diameter tub filled to a depth of 70 mm. For VISIBLE STAGE testing, mice were placed in the water maze and the time they took to reach the platform was recorded with a stop watch. This testing was carried out 8 times per day for 3 days, during which the platform was moved to various positions around the maze. The walls of the maze were inscribed with 4 distinct shapes that were provided as spatial cues for learning. The HIDDEN STAGE testing was carried out for 7 days, 4 times per day. The position of the platform was fixed, but mice were placed in the maze at different positions for each test.\n[…].\nAs subjects learned to navigate and find the hidden platform, their escape time was reduced. […]"}},
  "note": "“Also recorded” adds a separate entry of the source.",
  "data": [
    {"substance": "tetra-acetyl glucosamine [TAG]", "values": [
      {"measurement": "Plasma concentration of glutamate", "setting": "[1]", "value": "1.05 ± 0.094", "unit": "RU/ml"},
      {"measurement": "Plasma concentration of glutamine", "setting": "[1]", "value": "6.77 ± 1.05", "unit": "RU/ml"},
      {"measurement": "Plasma glutamate level compared to control mice (in words)", "setting": "[1]", "value": "significantly lower; also recorded: reduced"},
      {"measurement": "Plasma glutamine level compared to control mice (in words)", "setting": "[1]", "value": "trend of increased"},
      {"measurement": "UDP N-acetyl glucosamine in brain", "setting": "[2]; TG2576 mice, 0.45% (w/w) TAG diet for 6 weeks, n = 5, p=0.037 vs control diet", "value": "28.3 ± 2.13", "unit": "ng/mg brain fwt"},
      {"measurement": "Increase in levels of UDP N-acetyl glucosamine in brain vs control diet", "setting": "[2]; TG2576 mice, 6 weeks of TAG-supplemented diet", "value": 40, "unit": "%"},
      {"measurement": "UDP N-acetyl glucosamine in brain tissue compared to control (in words)", "setting": "[2]; mice models of AD fed a diet supplemented with TAG", "value": "increased"},
      {"measurement": "Effect on latency to escape time / spatial working memory in Morris water maze (in words)", "setting": "[3]; after 7 days", "value": "decreased; also recorded: significantly improved"},
      {"measurement": "Mean escape time ± SE", "setting": "[3]; water maze after 7 days, n = 8, in s (unit assumed)", "value": "9.31 ± 0.80"}
    ]}
  ]
}
